These results are taken from US9388313B2, “Water-insoluble coloring compound, ink, thermal transfer recording sheet, and color filter resist composition” (CANON KABUSHIKI KAISHA, priority 2012, dated 2016).

Series [1] can be described thus: Evaluation of solvent solubility of water-insoluble coloring compound (visual). Conditions: organic solvent or mixture, thermodynamic from solid, room temperature. It is filed as physicochemical. The method, then: The solvent solubilities of Compounds (1), (4), (11), (18), (23), (26), and (28) as the water-insoluble coloring compounds and Comparative Compounds (1) and (2) were evaluated by dissolving 30 mg of each compound in 0.7 mL of each solvent, toluene, methanol, ethyl acetate, or chloroform, at room temperature, and visually observing each solution according to the following evaluation criteria:
B: suspended material slightly remained, and […]

The nature of series [2]: Visual investigation of color filters. The conditions noted are these: cyclohexanone-based resist composition. The method, then:
Color filter resist composition (1) of the present invention was prepared by slowly adding 22 parts of Ink (A) to a solution of 6.7 parts of an acrylic copolymer composition (weight average molecular weight Mw: 10000) composed of 40% by mass of n-butyl methacrylate, 30% by mass of acrylic acid, and 30% by mass of hydroxyethyl methacrylate in monomer ratios, 1.3 parts of dipentaerythritol pentaacrylate, and 0.4 parts of 2-benzyl-2-dimethylamino-1-(4-morpholinophenyl)-butanone (photopolymerization initiator) in 96 parts of cyclohexanone, stirring the mixture at room temperature for 3 hours, and filtering the reaction solution through a filter of 1.5 μm pore size.
Color filter (1) was produced by spin-coating color filter resist composition (1) on a glass substrate and then drying at 90° C. for 3 min, exposure of the entire surface to light, and post-curing at 180° C.

Where [3] appears, read: 30 mg in 0.7 mL chloroform, read-out: Solubility Chloroform.
[4] abbreviates: 30 mg in 0.7 mL ethyl acetate, read-out: Solubility Ethyl acetate.
The mark [5] stands for this setting: 30 mg in 0.7 mL methanol, read-out: Solubility Methanol.
Setting [6] is: 30 mg in 0.7 mL toluene, read-out: Solubility Toluene.

Structures are written as SMILES. Like-named read-outs stand apart in the source and are kept apart here.

Usually solubility stands for how much of the substance goes into solution per volume. Turning to `CCCCC(CC)CN(CC(CC)CCCC)C(=O)c1ccccc1/N=N/c1c(O)[nH]c(=O)c(C(=O)OCC)c1C` (centres unmarked) [Compound 1], the solubility in series [1] (setting [3]), in series [1] (setting [4]), in series [1] (setting [5]) and in series [1] (setting [6]) was over 42.9 mg/mL in each case. Further, the “solvent solubility (demonstrated by spin-coating uniformity)” value (“solvent solubility” below) in series [2] is “high solvent solubilities”.

Consider `CCCCC(CC)CN(CC(CC)CCCC)S(=O)(=O)c1ccccc1/N=N/c1c(O)[nH]c(=O)c(C(=O)OCC)c1C` (centres unmarked) [Compound 4], for which the solubility in series [1] (setting [3]), in series [1] (setting [4]), in series [1] (setting [5]) and in series [1] (setting [6]) was over 42.9 mg/mL each time.

Take `CCCCC(CC)CN(CC(CC)CCCC)C(=O)c1cccc(/N=N/c2c(O)[nH]c(=O)c(C(=O)OCC)c2C)c1` (centres unmarked) [Compound 11]: the solubility in series [1] (setting [3]), in series [1] (setting [4]), in series [1] (setting [5]) and in series [1] (setting [6]) was over 42.9 mg/mL in each case. Further, the “solvent solubility” value in series [2] is given as “high solvent solubilities”.

With `CCCCC(CC)CN(CC(CC)CCCC)C(=O)c1ccc(/N=N/c2c(O)[nH]c(=O)c(C(=O)OCC)c2C)cc1` (centres unmarked) [Compound 18], the solubility in series [1] (setting [3]), in series [1] (setting [4]), in series [1] (setting [5]) and in series [1] (setting [6]) was over 42.9 mg/mL throughout. For the same molecule, the “solvent solubility” value in series [2] is recorded as “high solvent solubilities”.

For the molecule `CCCCC(CC)CN(CC(CC)CCCC)C(=O)c1ccccc1/N=N/c1c(O)[nH]c(=O)c(C(=O)NC(C)(C)C)c1C` (centres unmarked) [Compound 23], the solubility in series [1] (setting [3]), in series [1] (setting [4]), in series [1] (setting [5]) and in series [1] (setting [6]) was over 42.9 mg/mL in each case.

As to `CCCCCc1c(/N=N/c2ccccc2C(=O)N(CC(CC)CCCC)CC(CC)CCCC)c(O)[nH]c(=O)c1C(=O)N1CCCCC1` (centres unmarked) [Compound 26], the solubility in series [1] (setting [3]), in series [1] (setting [4]), in series [1] (setting [5]) and in series [1] (setting [6]) was over 42.9 mg/mL throughout.

`CCOC(=O)c1c(C)c(/N=N/c2ccccc2C(=O)N(C2CCCCC2)C2CCCCC2)c(O)[nH]c1=O` [Compound 28]: the solubility in series [1] (setting [3]), in series [1] (setting [4]), in series [1] (setting [5]) and in series [1] (setting [6]) was over 42.9 mg/mL in each case.

`CCCCC(CC)CN(CC(CC)CCCC)S(=O)(=O)c1ccc(/N=N/c2c(O)[nH]c(=O)c(C#N)c2C)cc1` (centres unmarked) [compound 1, reference compound]: the solubility in series [1] (setting [3]), in series [1] (setting [4]), in series [1] (setting [5]) and in series [1] (setting [6]) was under 42.9 mg/mL throughout. Also, the “solvent solubility” value in series [2] was “poor solvent solubilities”.

For `CCCCC(CC)CN(CC(CC)CCCC)C(=O)c1ccc(/N=N/c2c(O)[nH]c(=O)c(C#N)c2C)cc1` (centres unmarked) [compound 2, reference compound], the solubility in series [1] (setting [3]), in series [1] (setting [4]), in series [1] (setting [5]) and in series [1] (setting [6]) was under 42.9 mg/mL throughout. Besides, the “solvent solubility” value in series [2] is “poor solvent solubilities”.
